Reference: ChEMBL document CHEMBL1201862, “PubChem BioAssay data set” (2004)
Several values for one entry are separate records, joined by “and”; a condition that tells them apart may be missing. Identical values can stand only once.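 Five compound concentrations were applied to cells in 96-well plates for 48 hours; endpoints were derived by simple linear interpolation of the resulting dose-response curve. GI50: concentration for 50% inhibition of growth.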 Activity calls are given as the source filed them. No stated cut-off is given here; in the data, active = GI50 up to about 1.1 µM and inactive = higher. Residues, ends and D or L forms follow the SMILES beside them. *: point of attachment. Boc = CC(C)(C)OC(=O)*; OBn = c1ccc(CO*)cc1

Experiments:
Assay in all cases: NCI tumour cell line growth inhibition, 48 h
RPMI-8226 = test system: RPMI-8226
NCI-H460 = test system: NCI-H460
MDA-MB-435 = test system: MDA-MB-435
MDA-MB-231 = test system: MDA-MB-231
SW-620 = test system: SW-620
COLO 205 = test system: COLO 205
HCT-116 = test system: HCT-116
HCC 2998 = test system: HCC 2998
OVCAR-8 = test system: OVCAR-8
UACC-62 = test system: UACC-62
T47D = test system: T47D
UO-31 = test system: UO-31
IGROV-1 = test system: IGROV-1
HOP-62 = test system: HOP-62
SK-MEL-5 = test system: SK-MEL-5
MOLT-4 = test system: MOLT-4
ACHN = test system: ACHN
SN12C = test system: SN12C
SK-MEL-2 = test system: SK-MEL-2
M14 = test system: M14

Measured: GI50

O=Cc1ccc2c(c1)CC1(C2)Cc2ccc3c(c2C1)CCC3 (stereo not given)
inactive: RPMI-8226 6.47 µM | NCI-H460 17.2 µM | MDA-MB-435 2.46 µM | MDA-MB-231 3.76 µM | SW-620 3.98 µM | COLO 205 20.8 µM | HCT-116 6.82 µM | HCC 2998 24.3 µM | OVCAR-8 13.1 µM | UACC-62 6.56 µM | T47D 18.2 µM | UO-31 11.9 µM | IGROV-1 16.4 µM | HOP-62 9.4 µM | SK-MEL-5 4.81 µM | MOLT-4 6.41 µM | ACHN 32.1 µM | SN12C 8.45 µM | SK-MEL-2 4.02 µM | M14 7 µM

CC(C)C(NC(=O)CNC(=O)C1CCCN1C(=O)C(NC(=O)OC(C)(C)C)C(C)C)C(=O)NCC(=O)OCc1ccccc1 (stereo not given) (Boc-VPGVG-OBn; configuration not given here)
inactive: RPMI-8226 > 100 µM | NCI-H460 > 100 µM | MDA-MB-435 > 100 µM | MDA-MB-231 > 100 µM | SW-620 > 100 µM | COLO 205 > 100 µM | HCT-116 > 100 µM | HCC 2998 > 100 µM | OVCAR-8 > 100 µM | UACC-62 > 100 µM | T47D > 100 µM | UO-31 > 100 µM | IGROV-1 > 100 µM and 94.6 µM | HOP-62 > 100 µM | SK-MEL-5 24.5 µM | MOLT-4 > 100 µM | ACHN > 100 µM | SN12C > 100 µM | SK-MEL-2 > 100 µM | M14 > 100 µM

COc1cccc2c1cc([N+](=O)[O-])c1c(C(=O)O)cc3c(c12)OCO3 [ARISTOLOCHIC ACID]
inactive: RPMI-8226 24.7 µM | NCI-H460 27.7 µM | MDA-MB-435 54.8 µM | MDA-MB-231 39.1 µM | SW-620 32 µM | COLO 205 1.31 µM | HCT-116 29.9 µM | HCC 2998 2.8 µM | OVCAR-8 28.7 µM | UACC-62 31.4 µM | T47D 50.1 µM | UO-31 40.6 µM | IGROV-1 29.4 µM | HOP-62 23.7 µM | SK-MEL-5 44 µM | MOLT-4 26.7 µM | ACHN 41.6 µM | SN12C > 74.3 µM | SK-MEL-2 57.8 µM | M14 43.9 µM

COC(=O)C1=C(C)NC(C)=C(C(=O)OCCCN2CCC(c3ccccc3)(c3ccccc3)CC2)[C@H]1c1cccc([N+](=O)[O-])c1 [NIGULDIPINE]
inactive: RPMI-8226 1.61 µM | NCI-H460 1.81 µM | MDA-MB-435 1.63 µM | MDA-MB-231 1.3 µM | SW-620 1.92 µM | COLO 205 1.57 µM | HCT-116 1.51 µM | HCC 2998 2.24 µM | OVCAR-8 1.95 µM | UACC-62 1.61 µM | T47D 11.5 µM | UO-31 2 µM | IGROV-1 1.8 µM | HOP-62 4.6 µM | SK-MEL-5 1.75 µM | MOLT-4 1.95 µM | ACHN 1.66 µM | SN12C 1.58 µM | SK-MEL-2 2.41 µM | M14 1.69 µM
